Measurements published in patent publication US12139508B2, “Steroid derivative regulators, method for preparing the same, and uses thereof” (JIANGSU HANSOH PHARMACEUTICAL GROUP CO., LTD., priority 2018, dated 2024).

Assays:
[1] = test system: forced-swimming mice; test: In vivo pharmacodynamic test in the forced swimming model in mice; conditions: ICR mice; for Mean (immobility, %): 100*floating time/240 s; for Immobility time during the latter four minutes compared with that of the model group: forced swimming
Protocol: The antidepressant effect of the compound was evaluated by the forced swimming model in mice.
Male ICR mice (25-35 g) were adapted in the test environment for 3 days before the forced swimming test.
According to the test design, the mice were randomly grouped on the day before the test according to body weight, with 12 mice in each group. Before the test, the compounds of each example were administered intragastrically according to the Tmax thereof in the brain in mice pharmacokinetic test as follows: • 1) Model group (0.5% CMC-Na-1% Tween 80 solution, p.o., 10 mL/kg); • 2) Compounds of Example 2, Example 3, Example 5, Example 6, Example 9, Examples 59-63, Examples 71-73, Example 103, Example 135, Example 137, Example 145 and Example 146 (10 mg/kg, p.o., 10 mL/kg); Example 13 and Example 74 (5 mg/kg, p.o., 5 mL/kg).
When being administered, the compounds of each example were suspended in 0.5% CMC-Na+1% Tween 80 solution to the desired concentration.
0.5-1 hour after administration, ICR mice were placed in a forced swimming device (transparent glass drum (water depth 18 cm, water temperature 25-26° C.), one mouse per tank) and forced to swim for 6 minutes. The forced swimming device recorded the floating time of the ICR mice during the entire 6 minutes, and the data of the latter four minutes were used for data analysis. The mice were taken out immediately after the swimming test, wiped dry and put back in their original cages.
Note: The criterion for determining the immobility time is that the mouse stops struggling in water and floats, and there are only slight limb movements to keep the head floating on the water.
3.4 Data Analysis Floating time percentage=100*floating time/240 s.

[2] = molecular target: GABA-A receptor; test: 35S-TBPS binding assay (GABAA receptor binding ability test); parameters: species or system Sprague-Dawley rat; conditions: rat cerebral cortex cell membrane, 5 μM GABA, 2 nM 35S-TBPS; read-out: 35S-TBPS bindng test: IC50 on inhibiting the TBPS binding activity
Outline: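 Rat (male Sprague-Dawley) cortical membranes in PBS were preincubated 5 min at 25° C with compound (from 1 μM, 3-fold, 8 points, 1% DMSO), then 5 μM GABA 5 min, then 2 nM ^35S-TBPS for 20 h at 4° C. Filter-bound counts gave % inhibition against DMSO and 10 μM P026-2 controls; IC50 by 4-parameter fit.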

C[C@@]1(O)CC[C@H]2[C@H](CC[C@@H]3[C@@H]2CC[C@@]2(C)[C@H]3[C@H](C3CC3)C[C@@H]2C(=O)Cn2ncnn2)C1 [Example 146, 1-((3R,5R,8R,9R,10S,13S,14S,15S,17S)-15-Cyclopropyl-3-hydroxy-3,13-dimethylhexadecahydro-1H-cyclopenta[a]phenanthren-17-yl)-2-(2H-tetrazol-2-yl)ethan-1-one]
Mean (immobility, %) ([1]; dose 5 mpk p.o.): 33.54% | Immobility time during the latter four minutes compared with that of the model group [1]: significantly different | IC50 [2]: 21.4 nM

C[C@@H]1C[C@H](C(=O)Cn2ccc(C#N)n2)[C@@]2(C)CC[C@H]3[C@@H](CC[C@@H]4C[C@](C)(O)CC[C@@H]43)[C@H]12 [Example 60, 1-(2-((3R,5R,8R,9R,10S,13S,14S,15R,17S)-3-Hydroxy-3,13,15-trimethylhexadecahydro-1H-cyclopenta[a]phenanthren-17-yl)-2-oxoethyl)-1H-pyrazole-3-carbonitrile]
Mean (immobility, %) ([1]; dose 10 mpk p.o.): 35.30% | Immobility time during the latter four minutes compared with that of the model group [1]: significantly different | IC50 [2]: 8.2 nM

C[C@@]1(O)CC[C@H]2[C@H](CC[C@@H]3[C@@H]2CC[C@@]2(C)[C@H]3[C@@H]3C[C@@H]3[C@@H]2C(=O)Cn2cc(C#N)cn2)C1 [Example 2, 1-(2-((2R,4aS,4bR,6aS,7S,7aS,8aR,8bR,8cR,10aR)-2-hydroxy-2,6a-dimethyloctadecahydrocyclopropa[4,5]cyclopenta[1,2-a]phenanthren-7-yl)-2-oxoethyl)-1H-pyrazole-4-carbonitrile]
Mean (immobility, %) ([1]; dose 10 mpk p.o.): 54.26% | IC50 [2]: 24.3 nM

C[C@@H]1C[C@H](C(=O)Cn2cc(C#N)cn2)[C@@]2(C)CC[C@H]3[C@@H](CC[C@@H]4C[C@](C)(O)CC[C@@H]43)[C@H]12 [Example 13, 1-(2-((3R,5R,8R,9R,10S,13S,14S,15R)-3-Hydroxy-3,13,15-trimethylhexadecahydro-1H-cyclopenta[a]phenanthren-17-yl)-2-oxoethyl)-1H-pyrazole-4-carbonitrile]
Mean (immobility, %) ([1]; dose 5 mpk p.o.): 57.60% | IC50 [2]: 4.6 nM

C[C@@]1(O)CC[C@H]2[C@H](CC[C@@H]3[C@@H]2CC[C@]2(C)C(C(=O)Cn4cc(C#N)cn4)C[C@@H](C4CC4)[C@@H]32)C1 (stereo partly drawn) [Example 71, 1-(2-((3R,5R,8R,9R,10S,13S,14S,15S)-15-Cyclopropyl-3-hydroxy-3,13-dimethylhexadecahydro-1H-cyclopenta[a]phenanthren-17-yl)-2-oxoethyl)-1H-pyrazole-4-carbonitrile]
Mean (immobility, %) ([1]; dose 10 mpk p.o.): 55.92% | IC50 [2]: 7.5 nM

C[C@@]1(O)CC[C@H]2[C@H](CC[C@@H]3[C@@H]2CC[C@@]2(C)[C@H]3[C@@H]3C[C@@H]3[C@@H]2C(=O)Cn2ccc(C#N)n2)C1 [Example 3, 1-(2-((2R,4aS,4bR,6aS,7S,7aS,8aR,8bR,8cR,10aR)-2-hydroxy-2,6a-dimethyloctadecahydrocyclopropa[4,5]cyclopenta[1,2-a]phenanthren-7-yl)-2-oxoethyl)-1H-pyrazole-3-carbonitrile]
Mean (immobility, %) ([1]; dose 10 mpk p.o.): 28.50% | Mean (immobility, s) ([1]; dose 10 mpk p.o., latter four minutes of 6 min swim): 68.39 s | Immobility time during the latter four minutes compared with that of the model group [1]: significantly different | IC50 [2]: 14.9 nM

C[C@@]1(O)CC[C@H]2[C@H](CC[C@@H]3[C@@H]2CC[C@@]2(C)[C@H]3[C@@H]3C[C@@H]3[C@@H]2C(=O)Cn2cc(C(F)(F)F)cn2)C1 [Example 5, 1-((2R,4aS,4bR,6aS,7S,7aS,8aR,8bR,8cR,10aR)-2-Hydroxy-2,6a-dimethyloctadecahydrocyclopropa[4,5]cyclopenta[1,2-a]phenanthren-7-yl)-2-(4-(trifluoromethyl)-1H-pyrazol-1-yl)ethan-1-one]
Mean (immobility, %) ([1]; dose 10 mpk p.o.): 59.93% | IC50 [2]: 13.5 nM

CC[C@@H]1C[C@H](C(=O)Cn2ccc(C#N)n2)[C@@]2(C)CC[C@H]3[C@@H](CC[C@@H]4C[C@](C)(O)CC[C@@H]43)[C@H]12 [Example 137, 1-(2-((3R,5R,8R,9R,10S,13S,14S,15R,17S)-15-Ethyl-3-hydroxy-3,13-dimethylhexadecahydro-1H-cyclopenta[a]phenanthren-17-yl)-2-oxoethyl)-1H-pyrazole-3-carbonitrile]
Mean (immobility, %) ([1]; dose 10 mpk p.o.): 36.92% | Immobility time during the latter four minutes compared with that of the model group [1]: significantly different | IC50 [2]: 16.2 nM

C[C@@]1(O)CC[C@H]2[C@H](CC[C@@H]3[C@@H]2CC[C@@]2(C)[C@H]3[C@H](C3CC3)C[C@@H]2C(=O)Cn2ccnn2)C1 [Example 145, 1-((3R,5R,8R,9R,10S,13S,14S,15S,17S)-15-Cyclopropyl-3-hydroxy-3,13-dimethylhexadecahydro-1H-cyclopenta[a]phenanthren-17-yl)-2-(1H-1,2,3-triazol-1-yl)ethan-1-one]
Mean (immobility, %) ([1]; dose 5 mpk p.o.): 30.72% | IC50 [2]: 16.9 nM
